Assay results: ChEMBL document CHEMBL1201862, “PubChem BioAssay data set” (2004)
The source made the active and inactive calls.

Legend:
Type in all cases: functional
Aurora kinase B = Aurora kinase B (Homo sapiens, UniProt Q96GD4)
[1] = target: Serine/threonine-protein kinase Nek2 (Homo sapiens, UniProt P51955)
[2] = target: Serine/threonine-protein kinase PAK 4 (Homo sapiens, UniProt O96013);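 note: value obtained within a kinome profiling panel in which PAK4 was one of the panel members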
[3] = target: Cyclin-dependent kinase 8 (Homo sapiens, UniProt P49336); experiment: Navigating the Kinome. Panel member name: CDK8
[4] = target: Hepatocyte growth factor receptor (Homo sapiens, UniProt P08581);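 note: kinase panel profiling across the kinome, with MET as the panel member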
[5] = target: Tyrosine-protein kinase JAK3 (Homo sapiens, UniProt P52333)
[6] = target: Cyclin-dependent kinase 5 (Homo sapiens, UniProt Q00535);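 note: CDK5 measured as one member of a kinase profiling panel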
[7] = target: Tyrosine-protein kinase BTK (Homo sapiens, UniProt Q06187)
[8] = target: ALK tyrosine kinase receptor (Homo sapiens, UniProt Q9UM73);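 note: ALK tested as one member of a kinase panel screen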
[9] = target: Leukocyte tyrosine kinase receptor (Homo sapiens, UniProt P29376); experiment: Navigating the Kinome. Panel member name: LTK
[10] = target: Fibroblast growth factor receptor 1 (Homo sapiens, UniProt P11362)
[11] = target: Death-associated protein kinase 3 (Homo sapiens, UniProt O43293);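 note: measured as one member of a kinome-wide profiling panel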
[12] = target: Insulin-like growth factor 1 receptor (Homo sapiens, UniProt P08069); experiment: Navigating the Kinome. Panel member name: IGF1R
Insulin-like growth factor 1 receptor, sequence (P08069 31-736 limits assumed): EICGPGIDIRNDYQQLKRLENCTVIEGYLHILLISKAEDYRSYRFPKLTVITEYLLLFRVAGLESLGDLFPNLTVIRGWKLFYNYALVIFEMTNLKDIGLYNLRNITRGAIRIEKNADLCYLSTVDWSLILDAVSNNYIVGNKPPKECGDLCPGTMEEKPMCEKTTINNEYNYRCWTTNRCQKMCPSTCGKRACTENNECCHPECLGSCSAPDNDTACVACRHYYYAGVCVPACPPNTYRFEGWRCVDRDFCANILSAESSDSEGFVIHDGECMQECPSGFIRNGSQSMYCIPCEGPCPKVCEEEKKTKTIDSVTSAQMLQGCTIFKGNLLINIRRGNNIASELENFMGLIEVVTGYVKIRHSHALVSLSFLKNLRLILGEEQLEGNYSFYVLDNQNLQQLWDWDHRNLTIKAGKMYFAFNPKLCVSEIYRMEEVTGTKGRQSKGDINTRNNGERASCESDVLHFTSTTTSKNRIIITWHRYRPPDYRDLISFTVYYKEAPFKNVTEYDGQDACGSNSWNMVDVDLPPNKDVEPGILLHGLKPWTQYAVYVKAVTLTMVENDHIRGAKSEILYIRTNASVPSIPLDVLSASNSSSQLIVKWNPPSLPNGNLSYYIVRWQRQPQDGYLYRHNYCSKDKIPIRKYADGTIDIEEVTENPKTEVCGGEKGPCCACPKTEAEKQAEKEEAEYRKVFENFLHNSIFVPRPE
Insulin-like growth factor 1 receptor, sequence (P08069 741-1367 limits assumed): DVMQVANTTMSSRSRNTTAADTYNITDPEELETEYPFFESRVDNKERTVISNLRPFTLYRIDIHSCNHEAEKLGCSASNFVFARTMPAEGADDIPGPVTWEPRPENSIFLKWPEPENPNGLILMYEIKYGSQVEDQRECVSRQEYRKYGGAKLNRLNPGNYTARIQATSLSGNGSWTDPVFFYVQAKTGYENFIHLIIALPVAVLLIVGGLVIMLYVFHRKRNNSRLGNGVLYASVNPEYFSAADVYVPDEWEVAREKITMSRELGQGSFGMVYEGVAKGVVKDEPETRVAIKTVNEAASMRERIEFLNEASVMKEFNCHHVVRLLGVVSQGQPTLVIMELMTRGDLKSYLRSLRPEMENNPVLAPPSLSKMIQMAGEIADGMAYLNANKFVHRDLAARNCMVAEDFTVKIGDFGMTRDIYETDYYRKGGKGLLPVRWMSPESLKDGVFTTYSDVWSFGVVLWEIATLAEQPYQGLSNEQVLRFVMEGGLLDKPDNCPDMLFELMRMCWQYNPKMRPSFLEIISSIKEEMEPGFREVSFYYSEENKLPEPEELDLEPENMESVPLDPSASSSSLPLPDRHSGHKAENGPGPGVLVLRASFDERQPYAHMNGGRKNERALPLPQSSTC

[13] = target: Cyclin-dependent kinase 9 (Homo sapiens, UniProt P50750);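 note: value from the CDK9 entry of a kinome-spanning kinase panel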
Cyclin-dependent kinase 9, sequence (P50750 whole entry): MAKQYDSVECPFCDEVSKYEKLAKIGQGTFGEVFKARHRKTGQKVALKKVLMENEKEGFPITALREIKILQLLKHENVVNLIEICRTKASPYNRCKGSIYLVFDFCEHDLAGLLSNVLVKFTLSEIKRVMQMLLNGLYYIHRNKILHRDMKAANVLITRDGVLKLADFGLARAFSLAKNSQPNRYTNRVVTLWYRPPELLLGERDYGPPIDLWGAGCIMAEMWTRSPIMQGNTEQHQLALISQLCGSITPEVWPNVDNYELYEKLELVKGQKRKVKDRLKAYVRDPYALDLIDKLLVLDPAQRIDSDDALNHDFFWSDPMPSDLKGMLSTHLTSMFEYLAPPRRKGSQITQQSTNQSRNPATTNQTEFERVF

[14] = target: BDNF/NT-3 growth factors receptor (Homo sapiens, UniProt Q16620);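 note: NTRK2 measured as one member of a broad kinome-wide kinase profiling panel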
[15] = target: Macrophage-stimulating protein receptor (Homo sapiens, UniProt Q04912); experiment: Navigating the Kinome. Panel member name: MST1R
[16] = target: 5'-AMP-activated protein kinase catalytic subunit alpha-1 (Homo sapiens, UniProt Q13131)
5'-AMP-activated protein kinase catalytic subunit alpha-1, sequence (Q13131 whole entry): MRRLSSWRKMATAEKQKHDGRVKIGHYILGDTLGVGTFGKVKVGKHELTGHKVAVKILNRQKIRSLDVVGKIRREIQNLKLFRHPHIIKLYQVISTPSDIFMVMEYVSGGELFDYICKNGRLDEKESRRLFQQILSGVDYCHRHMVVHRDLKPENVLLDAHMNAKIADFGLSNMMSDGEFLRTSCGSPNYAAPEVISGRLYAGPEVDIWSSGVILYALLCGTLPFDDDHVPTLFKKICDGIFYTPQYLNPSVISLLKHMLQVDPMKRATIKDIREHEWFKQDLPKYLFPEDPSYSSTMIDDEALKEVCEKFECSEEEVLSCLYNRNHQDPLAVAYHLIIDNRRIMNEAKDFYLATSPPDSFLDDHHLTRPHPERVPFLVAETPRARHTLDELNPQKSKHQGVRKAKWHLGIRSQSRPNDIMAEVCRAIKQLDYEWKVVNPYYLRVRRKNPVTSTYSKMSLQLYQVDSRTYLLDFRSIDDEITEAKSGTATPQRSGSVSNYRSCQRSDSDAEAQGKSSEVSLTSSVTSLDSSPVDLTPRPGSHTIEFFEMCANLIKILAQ

Activated CDC42 kinase 1 = Activated CDC42 kinase 1 (Homo sapiens, UniProt Q07912); experiment: Navigating the Kinome. Panel member name: ACK1
Aurora kinase A = Aurora kinase A (Homo sapiens, UniProt O14965);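 note: value from the Navigating the Kinome kinase panel profiling, panel entry STK6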
Aurora kinase A, sequence (O14965 whole entry): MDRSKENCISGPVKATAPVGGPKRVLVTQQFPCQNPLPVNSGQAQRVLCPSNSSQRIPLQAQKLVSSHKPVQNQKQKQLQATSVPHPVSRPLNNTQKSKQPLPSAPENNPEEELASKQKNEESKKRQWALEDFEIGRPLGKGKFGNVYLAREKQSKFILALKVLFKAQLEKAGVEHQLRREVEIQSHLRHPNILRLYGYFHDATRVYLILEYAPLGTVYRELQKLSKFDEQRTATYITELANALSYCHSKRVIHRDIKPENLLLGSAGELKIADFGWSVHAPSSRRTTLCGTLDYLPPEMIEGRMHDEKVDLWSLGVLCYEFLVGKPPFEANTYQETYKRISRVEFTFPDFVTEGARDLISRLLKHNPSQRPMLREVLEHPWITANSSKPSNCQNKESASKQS

[17] = target: Mitogen-activated protein kinase kinase kinase kinase 2 (Homo sapiens, UniProt Q12851);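 note: measured as one member of a kinome-wide kinase panel, with MAP4K2 as the panel entry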
[18] = target: Receptor-type tyrosine-protein kinase FLT3 (Homo sapiens, UniProt P36888);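 note: FLT3 was tested as one member of a kinome-wide kinase panel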
Receptor-type tyrosine-protein kinase FLT3, sequence (P36888 whole entry): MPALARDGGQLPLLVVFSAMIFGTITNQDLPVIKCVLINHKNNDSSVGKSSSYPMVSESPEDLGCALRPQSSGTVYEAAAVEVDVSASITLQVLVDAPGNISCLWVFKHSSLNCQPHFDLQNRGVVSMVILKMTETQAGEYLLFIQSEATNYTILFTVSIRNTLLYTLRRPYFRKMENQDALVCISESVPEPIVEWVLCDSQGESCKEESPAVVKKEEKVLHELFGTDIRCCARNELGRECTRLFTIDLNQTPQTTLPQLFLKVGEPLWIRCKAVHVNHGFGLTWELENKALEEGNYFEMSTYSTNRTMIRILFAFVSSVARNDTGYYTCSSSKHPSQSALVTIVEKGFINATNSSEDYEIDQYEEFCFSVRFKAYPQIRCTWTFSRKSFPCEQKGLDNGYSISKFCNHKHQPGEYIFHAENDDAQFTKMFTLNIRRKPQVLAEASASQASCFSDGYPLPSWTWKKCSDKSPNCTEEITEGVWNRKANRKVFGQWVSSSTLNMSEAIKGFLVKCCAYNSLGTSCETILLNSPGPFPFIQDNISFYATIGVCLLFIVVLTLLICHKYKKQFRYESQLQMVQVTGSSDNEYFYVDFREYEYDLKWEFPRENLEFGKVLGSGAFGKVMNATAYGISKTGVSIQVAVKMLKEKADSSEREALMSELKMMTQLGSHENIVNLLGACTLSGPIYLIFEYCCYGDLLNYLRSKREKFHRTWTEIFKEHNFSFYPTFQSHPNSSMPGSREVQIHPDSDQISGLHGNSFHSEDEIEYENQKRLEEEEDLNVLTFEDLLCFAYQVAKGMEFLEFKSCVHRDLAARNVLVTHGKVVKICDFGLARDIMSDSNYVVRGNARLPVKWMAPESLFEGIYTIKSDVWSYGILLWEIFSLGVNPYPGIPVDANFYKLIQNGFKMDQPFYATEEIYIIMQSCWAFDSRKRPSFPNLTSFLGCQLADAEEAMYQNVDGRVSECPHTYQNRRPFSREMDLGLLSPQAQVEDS

[19] = target: Mitogen-activated protein kinase 8 (Homo sapiens, UniProt P45983);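 note: value comes from one member of a kinome-wide kinase profiling panel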
[20] = target: T1, Serine/threonine-protein kinase D3 (Homo sapiens, UniProt O94806);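 note: determined within a kinase panel screen, with PRKCN as the panel member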
T1 sequence (O94806 whole entry): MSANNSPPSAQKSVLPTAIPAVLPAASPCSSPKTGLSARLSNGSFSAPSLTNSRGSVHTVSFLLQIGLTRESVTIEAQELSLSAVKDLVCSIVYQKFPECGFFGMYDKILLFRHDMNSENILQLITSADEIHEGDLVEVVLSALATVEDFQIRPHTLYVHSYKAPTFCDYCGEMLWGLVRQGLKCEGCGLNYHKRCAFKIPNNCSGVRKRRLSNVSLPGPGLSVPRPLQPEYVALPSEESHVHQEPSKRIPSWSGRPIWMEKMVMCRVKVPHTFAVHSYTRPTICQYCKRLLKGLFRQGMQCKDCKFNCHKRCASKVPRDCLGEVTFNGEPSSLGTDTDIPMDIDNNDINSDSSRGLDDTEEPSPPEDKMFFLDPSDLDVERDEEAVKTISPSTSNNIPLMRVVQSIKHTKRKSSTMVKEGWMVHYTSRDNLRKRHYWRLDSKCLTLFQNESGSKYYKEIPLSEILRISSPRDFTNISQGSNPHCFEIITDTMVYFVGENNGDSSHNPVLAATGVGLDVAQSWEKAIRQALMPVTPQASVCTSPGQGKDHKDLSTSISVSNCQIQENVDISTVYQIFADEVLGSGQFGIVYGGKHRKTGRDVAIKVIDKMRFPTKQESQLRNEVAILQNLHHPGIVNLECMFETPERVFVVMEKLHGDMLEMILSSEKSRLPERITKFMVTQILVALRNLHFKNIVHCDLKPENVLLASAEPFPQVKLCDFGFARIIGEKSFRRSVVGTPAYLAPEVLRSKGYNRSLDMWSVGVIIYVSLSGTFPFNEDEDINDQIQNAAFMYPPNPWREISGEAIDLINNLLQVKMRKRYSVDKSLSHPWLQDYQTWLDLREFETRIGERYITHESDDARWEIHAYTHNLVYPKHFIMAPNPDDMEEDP

[21] = target: High affinity nerve growth factor receptor (Homo sapiens, UniProt P04629);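 note: NTRK1 tested as one member of a kinome-wide profiling panel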
High affinity nerve growth factor receptor, sequence (P04629 whole entry, canonical isoform): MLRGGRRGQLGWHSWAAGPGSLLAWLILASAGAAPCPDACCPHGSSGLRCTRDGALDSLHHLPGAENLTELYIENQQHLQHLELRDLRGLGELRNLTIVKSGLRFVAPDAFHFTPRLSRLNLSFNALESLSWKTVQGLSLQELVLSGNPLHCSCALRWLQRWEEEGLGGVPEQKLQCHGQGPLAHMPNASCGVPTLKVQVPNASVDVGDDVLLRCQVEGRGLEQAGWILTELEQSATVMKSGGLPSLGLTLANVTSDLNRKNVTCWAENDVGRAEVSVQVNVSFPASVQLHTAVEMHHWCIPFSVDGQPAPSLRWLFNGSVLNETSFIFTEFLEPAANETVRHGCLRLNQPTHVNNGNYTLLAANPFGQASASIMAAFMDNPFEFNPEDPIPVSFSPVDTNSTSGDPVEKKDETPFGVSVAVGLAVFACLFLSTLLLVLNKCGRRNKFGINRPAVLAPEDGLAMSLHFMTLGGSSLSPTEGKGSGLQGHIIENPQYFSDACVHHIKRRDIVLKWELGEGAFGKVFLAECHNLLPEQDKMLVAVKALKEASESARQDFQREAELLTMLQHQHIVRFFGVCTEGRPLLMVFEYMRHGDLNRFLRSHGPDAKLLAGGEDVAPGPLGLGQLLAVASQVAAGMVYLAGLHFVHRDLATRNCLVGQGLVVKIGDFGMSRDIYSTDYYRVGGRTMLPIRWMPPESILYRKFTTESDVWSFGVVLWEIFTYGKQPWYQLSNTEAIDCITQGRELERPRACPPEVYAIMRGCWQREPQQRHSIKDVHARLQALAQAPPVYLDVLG

[22] = target: Casein kinase I isoform alpha (Homo sapiens, UniProt P48729)
[23] = target: Serine/threonine-protein kinase pim-2 (Homo sapiens, UniProt Q9P1W9);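 note: value comes from a broad kinase panel profiling study in which PIM2 was one of the panel members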
[24] = target: Tyrosine-protein kinase Blk (Homo sapiens, UniProt P51451);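 note: obtained as one member of a kinome-wide kinase assay panel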
[25] = target: Testis-specific serine/threonine-protein kinase 2 (Homo sapiens, UniProt Q96PF2);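 note: part of the Navigating the Kinome panel, target entry STK22B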
[26] = target: Calcium/calmodulin-dependent protein kinase type II subunit beta (Homo sapiens, UniProt Q13554)
Focal adhesion kinase 1 = Focal adhesion kinase 1 (Homo sapiens, UniProt Q05397);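 note: measured as one member of a kinome panel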
[27] = target: MAP kinase-interacting serine/threonine-protein kinase 2 (Homo sapiens, UniProt Q9HBH9)
[28] = target: Megakaryocyte-associated tyrosine-protein kinase (Homo sapiens, UniProt P42679);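 note: affinity measured as one member of a kinase panel (Navigating the Kinome) against MATK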
[29] = target: Interleukin-1 receptor-associated kinase 4 (Homo sapiens, UniProt Q9NWZ3)
[30] = target: MAP kinase-activated protein kinase 3 (Homo sapiens, UniProt Q16644);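 note: value comes from a kinome-wide profiling panel in which MAPKAPK3 is one of the panel members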
[31] = target: Interleukin-1 receptor-associated kinase 1 (Homo sapiens, UniProt P51617);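 note: IRAK1 tested as one member of a kinome panel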

Serine/threonine-protein kinase PAK 4, sequence (O96013 whole entry): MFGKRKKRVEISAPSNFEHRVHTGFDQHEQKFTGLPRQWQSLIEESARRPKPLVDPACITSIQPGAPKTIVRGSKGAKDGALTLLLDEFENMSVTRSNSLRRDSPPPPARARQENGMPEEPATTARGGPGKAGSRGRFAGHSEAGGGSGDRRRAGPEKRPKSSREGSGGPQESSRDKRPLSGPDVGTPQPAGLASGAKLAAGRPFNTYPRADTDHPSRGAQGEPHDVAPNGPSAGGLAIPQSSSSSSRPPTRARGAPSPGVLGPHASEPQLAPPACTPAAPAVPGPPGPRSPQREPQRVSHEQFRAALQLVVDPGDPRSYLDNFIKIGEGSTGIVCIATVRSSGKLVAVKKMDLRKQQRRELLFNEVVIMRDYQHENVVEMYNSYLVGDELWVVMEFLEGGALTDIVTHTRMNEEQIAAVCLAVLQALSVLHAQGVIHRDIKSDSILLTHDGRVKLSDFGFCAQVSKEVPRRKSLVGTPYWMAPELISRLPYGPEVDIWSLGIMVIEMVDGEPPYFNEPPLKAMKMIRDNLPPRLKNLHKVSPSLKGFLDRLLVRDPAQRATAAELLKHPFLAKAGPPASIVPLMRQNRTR

[2H]C([2H])([2H])Oc1cccc(C(C)NC(=O)c2sc(-c3ccncc3)nc2C)c1 (stereo not given)
Ki (Aurora kinase B): > 3.98 µM (inactive)
Ki [1]: > 3.16 µM (inactive)
Ki [2]: > 5.01 µM (inactive)
Ki [3]: > 3.98 µM (inactive)
Ki [4]: > 2.51 µM (inactive)
Ki [5]: > 5.01 µM (inactive)
Ki [6]: > 3.16 µM (inactive)
Ki [7]: > 6.31 µM (inactive)
Ki [8]: > 6.31 µM (inactive)
Ki [9]: > 2.51 µM (inactive)
Ki [10]: > 3.98 µM (inactive)
Ki [11]: > 5.01 µM (inactive)
Ki [12]: > 2.51 µM (inactive)
Ki [13]: > 1.58 µM (inactive)
Ki [14]: > 3.98 µM (inactive)
Ki [15]: > 3.98 µM (inactive)
Ki [16]: > 3.16 µM (inactive)
Ki (Activated CDC42 kinase 1): > 3.98 µM (inactive)
Ki (Aurora kinase A): > 1.58 µM (inactive)
Ki [17]: > 2.51 µM (inactive)
Ki [18]: > 3.16 µM (inactive)
Ki [19]: > 5.01 µM (inactive)
Ki [20]: > 3.98 µM (inactive)
Ki [21]: > 3.16 µM (inactive)

Cc1n[nH]c2ccc(-c3cncc(OCC(N)Cc4ccc(Cl)c(Cl)c4)c3)cc12 (stereo not given)
Ki (Aurora kinase B): 0.251 µM (active)
Ki [1]: > 10 µM (inactive)
Ki [2]: 0.0794 µM (active)
Ki [3]: 0.0126 µM (active)
Ki [22]: 0.316 µM (active)
Ki [23]: 0.0126 µM (active)
Ki [5]: 1.26 µM (active)
Ki [24]: > 1.58 µM (inactive)
Ki [25]: > 1.58 µM (inactive)
Ki [6]: 0.0126 µM (active)
Ki [26]: 0.251 µM (active)
Ki [7]: > 1.26 µM (inactive)
Ki [8]: 0.794 µM (active)
Ki (Focal adhesion kinase 1): > 1.58 µM (inactive)
Ki [27]: 0.251 µM (active)
Ki [10]: > 5.01 µM (inactive)
Ki [11]: 0.126 µM (active)
Ki [28]: > 2 µM (inactive)
Ki [29]: 0.126 µM (active)
Ki [12]: > 2 µM (inactive)
Ki [13]: 0.2 µM (active)
Ki [14]: > 5.01 µM (inactive)
Ki [30]: > 10 µM (inactive)
Ki [16]: 0.0316 µM (active)
Ki [31]: 0.501 µM (active)
Ki (Aurora kinase A): 1 µM (active)
Ki [17]: 0.0631 µM (active)
Ki [18]: 0.1 µM (active)
Ki [19]: 2.51 µM (active)
Ki [20]: 0.00398 µM (active)
Ki [21]: > 2.51 µM (inactive)
